Test results: patent US7109202B2, “Aminothaizoles and their use as adenosine receptor antagonists” (Novartis AG, priority 2000, dated 2006)
Read-outs that look alike come from different tables or passages of the source.

How the values were obtained:
[1] = biological target: T1, human adenosine A2b receptor (Homo sapiens, UniProt P29275); assay: Adenosine A2b receptor reporter gene assay (luciferase, CHO-A2b cells); assay type: cell-based; settings: CHO cells transfected with human A2b receptor and pCRE-LUCI; NECA as agonist; KB from shift of the curve at 100 nM or 1 μM antagonist
T1 construct: expressed in transfected cells; host or cells: CHO cells, co-transfected with the pCRE-LUCI reporter plasmid
T1 sequence (P29275 1-332): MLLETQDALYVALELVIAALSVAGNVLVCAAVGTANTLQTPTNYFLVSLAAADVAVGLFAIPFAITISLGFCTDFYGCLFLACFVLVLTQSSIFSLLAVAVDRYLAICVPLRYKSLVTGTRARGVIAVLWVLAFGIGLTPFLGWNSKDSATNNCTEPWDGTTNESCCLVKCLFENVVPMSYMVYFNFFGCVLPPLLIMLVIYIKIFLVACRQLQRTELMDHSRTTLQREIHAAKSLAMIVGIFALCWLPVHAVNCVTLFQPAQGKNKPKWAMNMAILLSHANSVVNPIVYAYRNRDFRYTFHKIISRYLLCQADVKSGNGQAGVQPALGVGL
Procedure: Adenosine A2b Receptor Reporter Gene Assay a) Culturing of Chinese Hamster Ovary (CHO) A2b Cell Line
CHO cells transfected with a Luciferase-expressing reporter plasmid (pCRE-LUCI) and with a plasmid carrying the human adenosine A2b receptor structural gene (pA2bRCV) are routinely cultured in Dulbecco's Modified Eagle Medium (DMEM)—supplemented with 10% v/v fetal calf serum (FCS), 2 mM L-glutamine, 0.4 mg/ml L-proline, 1 nM sodium selenite, 0.5 mg/ml Hygromycin B and 1 mg/ml Geneticin—at 37° C., 5% CO2 and 100% humidity. The cells are left to grow to confluence for 4–5 days. The cells obtained are passaged using trypsin/EDTA and split at a ratio of 1 in 5. […]
b) Preparation of Cells for Assay
Prior to the assay, the CHO-A2b cells are plated onto white 96-well View Plate tissue culture plates (Packard) at a density of 50,000 cells per well in […] of DMEM, and the plates are incubated at 37° C., 5% CO2 and 100% humidity. […]
c) Preparation of Reference and Test Compounds
10 mM solutions of the reference compound, Xanthine Amine Cogener (XAC), and the test compound in dimethyl sulfoxide (DMSO) are prepared. The solutions are further diluted with DMSO to 100 μM, then diluted to 10 μM, and finally to 250 nM or 2.5 μM with Assay Buffer (DMEM Phenol Red-free tissue culture media supplemented with 10 μM Rolipram and 10 U/ml adenosine deaminase (ADA). The resulting solutions (40 μl) are added to the cells in the appropriate wells, the final concentration per well being 100 nM or 1 μM, and the plates are incubated at 37° C., 5% CO2 and 100% humidity. […]
d) Luciferase Reporter Gene Assay
5′-N-ethylcarboxamidoadenosine (NECA), an adenosine A2b agonist, is prepared as a […] solution in DMSO and then diluted to 100 μM with Assay Buffer. This solution is serially diluted in Assay Buffer to give a series of 10 NECA concentrations from 100 to 0.01 μM. 10 μl portions of the resulting NECA solutions are added to the mixtures of CHO-A2b cells and reference or test compound solutions prepared as described above (preincubated for 30 minutes), final concentrations ranging from 10 to 0.0005 μM per well. The cells are incubated at 37° C., 5% CO2 and 100% humidity for 3 hours to induce release of cAMP, which then binds to cAMP binding protein (CBP) and the resulting complex interacts with the reporter plasmid to express Luciferase. 100 μl of Steady-Glo, a Luciferase assay substrate from Promega, is added to all wells to lyse the cells and generate luminescence in proportion to the amount of Lucifrease produced. The plates are left for a minimum of 5 minutes before being read on the luminescence program of a Topcount NXT microplate scintillation counter (ex Packard). Concentration—response curves are plotted from the luminescence data using Activitybase software and KB values for the antagonists under test are calculated from the shifts of the curve at a particular concentration (KB=[antagonist]/(concentration ratio−1)

adenosine A3 receptor = biological target: T2, adenosine A3 receptor (Homo sapiens, UniProt P0DMS8)
T2 sequence (P0DMS8 1-318): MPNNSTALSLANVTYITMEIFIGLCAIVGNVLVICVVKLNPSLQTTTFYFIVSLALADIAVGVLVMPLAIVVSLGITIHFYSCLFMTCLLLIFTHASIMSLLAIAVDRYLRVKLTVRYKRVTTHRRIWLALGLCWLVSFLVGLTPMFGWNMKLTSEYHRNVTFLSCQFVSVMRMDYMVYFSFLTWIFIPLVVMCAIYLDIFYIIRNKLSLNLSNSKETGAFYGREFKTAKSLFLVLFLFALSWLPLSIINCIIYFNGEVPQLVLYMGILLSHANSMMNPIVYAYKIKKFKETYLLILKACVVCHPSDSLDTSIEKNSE

[2] = read-out: KI value in adenosine A3 receptor assay, assay as described in WO 99/64418

Compound	Kb [1]	Ki (adenosine A3 receptor; [2])	melting point	Ki (adenosine A3 receptor)
(3-[5-(2-Methyl-imidazol-1-yl)-2-(pyrazin-2-ylamino)-triazol-4-yl]-benzonitrile) [Example 35]	4 nM	10 nM		
Cn1cccc1C(=O)Nc1nc(-c2cccc(C#N)c2)c(-n2cncn2)s1 [Example 36, 1-Methyl-1H-pyrrole-2-carboxylic Acid [4-(3-cyano-phenyl)-5-[1,2,4]triazol-1-yl-thiazol-2-yl]-amide]	17 nM		245 to 247 °C	
COCCOc1cncc(Nc2nc(-c3cccc(C#N)c3)c(-n3cncn3)s2)n1 [Example 38]	12 nM			4 nM
Cc1cccc(Nc2nc(-c3cccc(C#N)c3)c(-n3cncn3)s2)n1 [Example 15, 3-[2-(6-Methyl-pyridin-2-ylamino)-5-[1,2,4]triazol-1-yl-thiazol-4-yl]-benzonitrile]	20 nM			
N#Cc1cccc(-c2nc(Nc3cnccn3)sc2-n2cncn2)c1 [Example 27, (3-[2-(Pyrazin-2-ylamino)-5-[1,2,4]triazol-1-yl-thiazol-4-yl]-benzonitrile)]	10 nM	16 nM		
COc1ccc(C(=O)Nc2nc(-c3cccc(C#N)c3)c(-n3cncn3)s2)cc1 [Example 12, N-[4-(3-Cyano-phenyl)-5-[1,2,4]triazol-1-yl-thiazol-2-yl]-4-methoxy-benzamide]	31 nM		292 to 294 °C	
